Earlier results on one molecule are cited in US20090220611A1, “Microparticles With Modified Release of At Least One Active Principle and Oral Pharmaceutical Form Comprising Same” (priority 2005, published 2009).

For this data set the following is noted: qualitative statement.

Take `Nc1nc2c(ncn2COCCO)c(=O)[nH]1` [aciclovir]: the water solubility result is listed as “sparingly water-soluble”.
